Laboratory results as given in patent US20210392895A1, “NOVEL OXADIAZOLES” (PI INDUSTRIES LIMITED, priority 2018, published 2021).
Counter-ions that a name gives are not always drawn.

Legend:
[1] = test system: Phakopsora pachyrhizi; assay: Phakopsora pachyrhizi test in soybean (greenhouse, preventive activity, disease severity rating); type: in vivo; conditions: preventive spray on soybean, compared to the untreated check
Outline: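 Greenhouse-raised young soybean plants sprayed with compound at stated rates, then inoculated one day later with 2.1×10^6 P. pachyrhizi spores and held at 25° C, 90% RH. Disease severity (0-100%) rated visually 3, 7, 10 and 15 days after application; % control calculated versus untreated plants.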

[2] = test system: Rhizoctonia solani; assay: Rhizoctonia solani (rice sheath blight/potato black scurf) in vitro test, radial growth on Potato Dextrose Agar; type: cell-based; conditions: 168 h, compared to the untreated check, radial growth after seven days, read-out: control
[3] = test system: Corynespora cassicola; assay: Corynespora cassicola (leaf spot of tomato) in vitro test, radial growth on Potato Dextrose Agar; type: cell-based; conditions: 168 h, compared to the untreated check, radial growth after seven days, read-out: control
[4] = test system: Alternaria solani; assay: Alternaria solani (early blight of tomato/potato) in vitro test, radial growth on Potato Dextrose Agar; type: cell-based; conditions: 168 h, compared to the untreated check, radial growth after seven days, read-out: control
[5] = test system: Pyricularia oryzae; assay: microbe, parasite or virus in culture; type: cell-based; conditions: 168 h, read-out: control
[6] = test system: Colletotrichum capsici; assay: Colletotrichum capsici (anthracnose) in vitro test, radial growth on Potato Dextrose Agar; conditions: Colletotrichum truncatum, 168 h, read-out: control
Description: Compounds were dissolved in 0.3% DMSO and then added to Potato Dextrose Agar medium just prior to dispensing it into petri dishes. 5 mL medium with compound in the desired concentration was dispensed into 60 mm sterile petri-plates. After solidification, each plate was seeded with a 5 mm size mycelial disc taken form the periphery of an actively growing virulent culture plate. Plates were incubated in growth chambers at 25° C. temperature and 60% relative humidity for seven days and radial growth was measured.

[7] = test system: Fusarium culmorum; assay: Fusarium culmorum (foot rot of cereals) in vitro test, radial growth on Potato Dextrose Agar; type: cell-based; conditions: 168 h, 25° C., seven days, read-out: control compared to the untreated check (radial growth)
[8] = test system: Botrytis cinerea; assay: Botrytis cinerea (gray mold) in vitro test, radial growth on Potato Dextrose Agar; type: cell-based; conditions: 168 h, compared to the untreated check, radial growth after seven days, read-out: control

FC(F)(F)c1nc(-c2ccc(OC3CCNCC3)cc2)no1 [Compound 85, 3-(4-(piperidin-4-yloxy)phenyl)-5-(trifluoromethyl)-1,2,4-oxadiazole Hydrochloride]
> 70%: pest or weed control at 500 ppm [1] | inhibition of growth at 300 ppm [2] | inhibition of growth at 300 ppm [3] | inhibition of growth at 300 ppm [4] | inhibition of growth at 300 ppm [5]

O=C(c1cocn1)N1CC[C@H](Oc2ccc(-c3noc(C(F)(F)F)n3)cn2)C1 [Compound 199, (S)-oxazol-4-yl(3-((5-(5-(trifluoromethyl)-1,2,4-oxadiazol-3-yl)pyridin-2-yl)oxy)pyrrolidin-1-yl)methanone]
> 70%: inhibition of growth at 300 ppm [6] | inhibition of growth at 300 ppm [4] | inhibition of growth at 300 ppm [5] | inhibition of growth at 300 ppm [7]

O=C(c1cscn1)N1CC[C@H](Oc2ccc(-c3noc(C(F)(F)F)n3)cn2)C1 [Compound 200, (S)-thiazol-4-yl(3-((5-(5-(trifluoromethyl)-1,2,4-oxadiazol-3-yl)pyridin-2-yl)oxy)pyrrolidin-1-yl)methanone]
> 70%: inhibition of growth at 300 ppm [6] | inhibition of growth at 300 ppm [4] | inhibition of growth at 300 ppm [5]

FC(F)(F)c1nc(-c2ccc(S[C@@H]3CCNC3)cc2)no1 [Compound 158, (R)-3-(4-(pyrrolidin-3-ylthio)phenyl)-5-(trifluoromethyl)-1,2,4-oxadiazole Hydrochloride]
> 70%: inhibition of growth at 300 ppm [3] | inhibition of growth at 300 ppm [4]

FC(F)(F)c1nc(-c2ccc(O[C@H]3CCN(Cc4ccc(Cl)cc4)C3)cc2)no1 [Compound 180, (S)-3-(4-((1-(4-chlorobenzyl)pyrrolidin-3-yl)oxy)phenyl)-5-(trifluoromethyl)-1,2,4-oxadiazole]
> 70%: inhibition of growth at 300 ppm [6] | inhibition of growth at 300 ppm [8] | inhibition of growth at 300 ppm [3] | inhibition of growth at 300 ppm [4] | inhibition of growth at 300 ppm [5]

CC(=O)N1CC[C@@H](Sc2ccc(-c3noc(C(F)(F)F)n3)cc2)C1 [Compound 165, (R)-1-(3-((4-(5-(trifluoromethyl)-1,2,4-oxadiazol-3-yl)phenyl)thio)pyrrolidin-1-yl)ethan-1-one]
> 70%: inhibition of growth at 300 ppm [6] | inhibition of growth at 300 ppm [8] | inhibition of growth at 300 ppm [2] | inhibition of growth at 300 ppm [3] | inhibition of growth at 300 ppm [4] | inhibition of growth at 300 ppm [5]

FC(F)(F)c1nc(-c2ccc(O[C@H]3CCN(Cc4ccccc4)C3)cc2)no1 [Compound 137, (S)-3-(4-((1-benzylpyrrolidin-3-yl)oxy)phenyl)-5-(trifluoromethyl)-1,2,4-oxadiazole]
> 70%: inhibition of growth at 300 ppm [2] | inhibition of growth at 300 ppm [3] | inhibition of growth at 300 ppm [4] | inhibition of growth at 300 ppm [5]

CN(c1ccc(-c2noc(C(F)(F)F)n2)cc1)C1CN(C(=O)c2cccc(F)c2)C1 [Compound 96, (3-fluorophenyl)(3-(methyl(4-(5-(trifluoromethyl)-1,2,4-oxadiazol-3-yl)phenyl)amino)azetidin-1-yl)methanone]
> 70%: inhibition of growth at 300 ppm [6] | inhibition of growth at 300 ppm [4] | inhibition of growth at 300 ppm [5]

CC(=O)N1CC[C@H](Oc2ccc(-c3noc(C(F)(F)F)n3)c(F)c2)C1 [Compound 68, (S)-1-(3-(3-fluoro-4-(5-(trifluoromethyl)-1,2,4-oxadiazol-3-yl)phenoxy)pyrrolidin-1-yl)ethan-1-one]
> 70%: inhibition of growth at 300 ppm [6] | inhibition of growth at 300 ppm [8] | inhibition of growth at 300 ppm [2] | inhibition of growth at 300 ppm [4] | inhibition of growth at 300 ppm [5]

O=C(c1ccncc1)N1CC[C@H](Oc2ccc(-c3noc(C(F)(F)F)n3)cc2F)C1 [Compound 59, (S)-(3-(2-fluoro-4-(5-(trifluoromethyl)-1,2,4-oxadiazol-3-yl)phenoxy)pyrrolidin-1-yl)(pyridin-4-yl)methanone]
> 70%: pest or weed control at 500 ppm [1] | inhibition of growth at 300 ppm [6] | inhibition of growth at 300 ppm [8] | inhibition of growth at 300 ppm [2] | inhibition of growth at 300 ppm [4] | inhibition of growth at 300 ppm [5]

CN(c1ccc(-c2noc(C(F)(F)F)n2)cc1)C1CN(C(=O)c2ccccc2)C1 [Compound 87, (3-(methyl(4-(5-(trifluoromethyl)-1,2,4-oxadiazol-3-yl)phenyl)amino)azetidin-1-yl)(phenyl)methanone]
> 70%: pest or weed control at 500 ppm [1] | inhibition of growth at 300 ppm [6]

O=C(c1cccnc1)N1CC[C@H](Oc2ccc(-c3noc(C(F)(F)F)n3)cc2)C1 [Compound 12, (S)-pyridin-3-yl(3-(4-(5-(trifluoromethyl)-1,2,4-oxadiazol-3-yl)phenoxy)pyrrolidin-1-yl)methanone]
> 70%: pest or weed control at 500 ppm [1] | inhibition of growth at 300 ppm [6] | inhibition of growth at 300 ppm [2] | inhibition of growth at 300 ppm [4] | inhibition of growth at 300 ppm [5] | inhibition of growth at 300 ppm [7]

O=C(c1cccnc1)N1CC[C@H](Oc2ccc(-c3noc(C(F)(F)F)n3)cn2)C1 [Compound 48, (S)-pyridin-3-yl(3-((5-(5-(trifluoromethyl)-1,2,4-oxadiazol-3-yl)pyridin-2-yl)oxy)pyrrolidin-1-yl)methanone]
> 70%: pest or weed control at 500 ppm [1] | inhibition of growth at 300 ppm [8] | inhibition of growth at 300 ppm [2] | inhibition of growth at 300 ppm [4] | inhibition of growth at 300 ppm [5]

Cc1ccc(CN2CC[C@H](Oc3ccc(-c4noc(C(F)(F)F)n4)cc3)C2)cc1 [Compound 163, (S)-3-(4-((1-(4-methylbenzyl)pyrrolidin-3-yl)oxy)phenyl)-5-(trifluoromethyl)-1,2,4-oxadiazole]
> 70%: inhibition of growth at 300 ppm [8] | inhibition of growth at 300 ppm [2] | inhibition of growth at 300 ppm [3] | inhibition of growth at 300 ppm [4] | inhibition of growth at 300 ppm [5]

CC(C)S(=O)(=O)N1CC[C@H](Oc2ccc(-c3noc(C(F)(F)F)n3)cc2)C1 [Compound 136, (S)-3-(4-((1-(isopropylsulfonyl)pyrrolidin-3-yl)oxy)phenyl)-5-(trifluoromethyl)-1,2,4-oxadiazole]
> 70%: inhibition of growth at 300 ppm [6]

O=C(c1ccncc1)N1CC[C@H](Oc2ccc(-c3noc(C(F)(F)F)n3)cn2)C1 [Compound 49, (S)-pyridin-4-yl(3-((5-(5-(trifluoromethyl)-1,2,4-oxadiazol-3-yl)pyridin-2-yl)oxy)pyrrolidin-1-yl)methanone]
> 70%: pest or weed control at 500 ppm [1] | inhibition of growth at 300 ppm [6] | inhibition of growth at 300 ppm [2] | inhibition of growth at 300 ppm [4] | inhibition of growth at 300 ppm [5]
